In data set [1] the target is T1, hERG potassium ion channel (Homo sapiens, UniProt Q12809).
T1 construct: expressed in transfected cells
Put plainly: Inhibition of hERG potassium ion channels, manual patch-clamp in HEK-293 cells. It counts as cell-based. Particulars: HEK-293 cells stably expressing hERG, whole-cell manual patch-clamp, room temperature. The protocol: Experimental Example 5: Test for Inhibition of hERG Potassium Ion Channels by Compound
Experimental Objective: To study the inhibitory effect of the compound on hERG potassium ion channels by a manual patch-clamp technique. […]
• 2.1 Blank control: DMSO stock. • 2.2 Positive control: 10 mM stock formulated from a appropriate amount of Cisapride and dimethyl sulfoxide (DMSO). The stock was aliquoted and stored at −20° C. • 2.3 Compound: An appropriate amount of compound was weighed; the volume of DMSO required was calculated according to the formula: DMSO volume=actual amount×purity (content)/(molecular weight×theoretical concentration), and the corresponding volume of DMSO was pipetted; then, the weighed compound was dissolved with the pipetted DMSO, and the mass of DMSO was measured at the same time; and finally, the actual stock concentration was calculated according to the final amount of DMSO used. […]
A general note: Block of hERG is tested as a sign of cardiac risk.

Data set [2] can be described thus: Pharmacokinetic study in beagles. To be noted: beagle, dog, plasma, male beagles. In kind it is in vivo. The protocol:
Experimental Example 4: Pharmacokinetic Study of Compounds in Beagles
Compound 174 was prepared into a solution with a mixed solvent formulated from 5% dimethyl sulfoxide, 20% (30% solutol) and 75% normal saline; the solution of this compound was administered to male beagles by gavage at a dose of 1.0 mg/kg; and the time points for blood collection were: 15 min, 30 min, 1 b, 2 h, 4 h, 6 b, 8 h, 10 h and 24 h. The solution of the compound was administered to male beagles by intravenous bolus at a dose of 1.0 mg/kg, and the time points for blood collection were as follows: 5 min, 15 min, 30 min, 1 h, 2 h, 4 h, 6 h, 8 h, 10 h, and 24 h.
Compound 177 and Compound 195 were prepared into solutions with a mixed solvent formulated from 5% dimethyl sulfoxide, 20% (30% solutol) and 75% normal saline, respectively; the solutions of these compounds were administered to male beagles by gavage at a dose of 1.0 mg/kg; and the time points for blood collection were: 15 min, 30 min, 1 h, 2 h, 4 h, 6 h, 8 h, 10 h and 24 h. The solution of the compound was administered to male beagles by intravenous bolus at a dose of 1.0 mg/kg, and the time points for blood collection were as follows: 5 min, 15 min, 30 min, 1 h, 2 h, 4 h, 6 h, 8 h, 10 h, and 24 h.
Approximately 400 μL of blood was collected through the medial cephalic vein of the forelimb and placed in an anticoagulant tube containing EDTA-K2. Blood samples were centrifuged at 12,000 rpm for 10 min at 4° C. to obtain plasma samples, and plasma was prepared within 30 min after blood collection. The plasma was stored in a −80° C. freezer before testing.

Consider 2 compounds from patent US20250152584A1, “NLRP3 INFLAMMASOME INHIBITOR AND USES THEREOF” (TransThera Sciences (Nanjing), Inc., priority 2022, published 2025).

What is called IC50 is the concentration at which inhibition is half-maximal. Low readings indicate higher potency, high ones lower potency. Broadly, the clearance is the volume of plasma or blood freed of the substance per unit of time. Usually bioavailability stands for dose-corrected exposure relative to a reference, in per cent.

Like-named read-outs stand apart in the source and are kept apart here. Some results are limits rather than exact numbers.

T1 sequence (Q12809 whole entry): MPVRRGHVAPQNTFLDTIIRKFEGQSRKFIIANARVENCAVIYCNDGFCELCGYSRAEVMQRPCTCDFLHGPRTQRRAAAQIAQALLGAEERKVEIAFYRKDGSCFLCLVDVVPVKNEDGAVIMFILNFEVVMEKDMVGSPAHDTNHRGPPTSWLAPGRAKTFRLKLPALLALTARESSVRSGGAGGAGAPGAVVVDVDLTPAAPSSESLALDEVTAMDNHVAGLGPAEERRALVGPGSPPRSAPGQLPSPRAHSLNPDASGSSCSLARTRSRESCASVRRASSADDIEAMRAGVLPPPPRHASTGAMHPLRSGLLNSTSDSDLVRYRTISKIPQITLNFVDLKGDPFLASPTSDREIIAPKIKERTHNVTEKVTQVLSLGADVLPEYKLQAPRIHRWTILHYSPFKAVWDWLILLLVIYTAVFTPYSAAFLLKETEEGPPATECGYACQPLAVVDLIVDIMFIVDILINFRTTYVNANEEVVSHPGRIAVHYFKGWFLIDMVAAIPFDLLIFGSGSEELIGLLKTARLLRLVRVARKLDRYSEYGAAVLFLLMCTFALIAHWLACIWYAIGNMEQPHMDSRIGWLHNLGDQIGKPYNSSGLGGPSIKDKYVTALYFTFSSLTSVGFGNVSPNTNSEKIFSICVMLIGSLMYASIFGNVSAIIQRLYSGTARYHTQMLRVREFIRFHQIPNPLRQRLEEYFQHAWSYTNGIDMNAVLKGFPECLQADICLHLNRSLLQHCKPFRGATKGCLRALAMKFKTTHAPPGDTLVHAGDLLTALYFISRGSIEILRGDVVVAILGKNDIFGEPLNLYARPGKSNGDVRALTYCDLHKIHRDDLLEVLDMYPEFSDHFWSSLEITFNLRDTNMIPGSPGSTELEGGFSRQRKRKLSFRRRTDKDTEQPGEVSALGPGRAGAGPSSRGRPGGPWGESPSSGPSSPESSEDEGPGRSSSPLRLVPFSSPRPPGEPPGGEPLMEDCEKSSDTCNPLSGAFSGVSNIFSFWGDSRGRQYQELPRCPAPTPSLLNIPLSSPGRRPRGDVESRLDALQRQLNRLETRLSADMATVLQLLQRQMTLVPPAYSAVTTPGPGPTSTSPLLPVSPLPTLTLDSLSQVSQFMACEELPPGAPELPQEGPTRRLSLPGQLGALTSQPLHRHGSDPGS

Consider `C#Cc1ccc(-c2nnc(N[C@@H]3CCCN(C)C3)cc2C)c(O)c1` [Compound 54, (R)-5-ethynyl-2-(4-methyl-6-((1-methylpiperidin-3-yl)amino)pyridazin-3-yl)phenol], for which the IC50 in data set [1] was > 10 µM.
For `CC#Cc1ccc(-c2nnc(N[C@@H]3CCCN(C)C3)cc2C)c(O)c1` [Compound 174, (R)-2-(4-methyl-6-((1-methylpiperidin-3-yl)amino)pyridazin-3-yl)-5-(prop-1-yn-1-yl)phenol], the AUC(0-t) in data set [2] (po, gavage 1.0 mg/kg, read-out: AUClast po (area under the drug-time curve for 0-24 h)) stood at 1660 ng·h/mL; in data set [2] (intravenous bolus 1.0 mg/kg, read-out: AUClast iv (area under the drug-time curve for 0-24 h)), 1980 ng·h/mL. Besides, the Cmax in data set [2] (po, gavage 1.0 mg/kg, read-out: Cmax po (peak concentration)) was 105 ng/mL. In addition, in data set [2] (po, gavage 1.0 mg/kg, read-out: Tmax po (peak time of plasma concentration)), the Tmax came out at 4 h. For the same compound, the half-life in data set [2] (po, gavage 1.0 mg/kg, read-out: tz1/2 po (terminal elimination half-life) (converted)) was 14.7 h; in data set [2] (intravenous bolus 1.0 mg/kg, read-out: tz1/2 iv (terminal elimination half-life) (converted)) it was 15.8 h. The clearance in data set [2] (intravenous bolus 1.0 mg/kg, read-out: Cl—obs iv (clearance rate) (converted)) is 5.53 mL/min/kg. For the same compound, the Vd in data set [2] (intravenous bolus 1.0 mg/kg, read-out: Vss iv (volume of distribution)) was found to be 7.39 L/kg. For the same compound, in data set [2] (iv 1.0 mg/kg / po 1.0 mg/kg, read-out: F % (absolute bioavailability)), the bioavailability worked out at 83.8%.
